Assay results as given in ChEMBL document CHEMBL5257148, “Novel Tricyclic Compounds as KRAS Inhibitors for Treating Cancer” (ACS Med Chem Lett, 2023).

Assays:
GTPase KRas [1] = molecular target: T1, GTPase KRas (Homo sapiens, UniProt P01116, G12C); experiment: Inhibition of KRAS G12C mutant in human MIA PaCa-2 cells assessed as reduction in pERK level incubated for 4 hrs by HTRF assay; type: cell-based
GTPase KRas [2] = molecular target: T1, GTPase KRas; experiment: Inhibition of KRAS G12C mutant in human MIA PaCa-2 cells assessed as reduction in whole blood pERK level incubated for 4 hrs by HTRF assay; type: cell-based
GTPase KRas [3] = molecular target: T1, GTPase KRas; experiment: Inhibition of KRAS G12C mutant (unknown origin) assessed as inhibition of SOS1 mediated nucleotide exchange incubated for 2 hrs in presence of GppNHp by fluorescence based analysis

Measured: IC50

T1 sequence (P01116 whole entry G12C): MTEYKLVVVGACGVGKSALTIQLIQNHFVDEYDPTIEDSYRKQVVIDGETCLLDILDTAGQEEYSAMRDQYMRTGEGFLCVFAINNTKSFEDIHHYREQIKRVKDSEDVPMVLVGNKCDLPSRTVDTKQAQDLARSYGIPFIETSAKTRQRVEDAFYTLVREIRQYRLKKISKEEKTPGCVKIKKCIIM

COC/C=C/C(=O)N1CC[C@H](n2nnc3c(O[C@@H](C)[C@@H]4CCCN4C)nc4c(F)c(-c5nn(C)c6ccccc56)c(C)cc4c32)C[C@H]1CC#N
≤ 50 nM: all assays above

C=C(F)C(=O)N1CC[C@H](n2nnc3c(O[C@@H](C)[C@@H]4CCCN4C)nc4c(F)c(-c5ncc(F)c6ccccc56)c(C)cc4c32)C[C@H]1CC#N
≤ 50 nM: all assays above

Cc1cc2c(nc(O[C@@H](C)[C@@H]3CCCN3C)c3nnn([C@H]4CCN(C(=O)/C=C/CF)[C@H](CC#N)C4)c32)c(F)c1-c1ccc2cnn(C)c2c1
≤ 50 nM: all assays above

COC/C=C/C(=O)N1CC[C@H](n2nnc3c(O[C@@H](C)[C@@H]4CCCN4C)nc4c(F)c(-c5ncc(F)c6ccccc56)c(C)cc4c32)C[C@H]1CC#N
≤ 50 nM: all assays above

Cc1cccc(-c2c(C)cc3c(nc(N4CC(C)(N(C)C)C4)c4nnn([C@H]5CCN(C(=O)/C=C/CF)[C@H](CC#N)C5)c43)c2F)c1Cl
≤ 50 nM: all assays above

COC/C=C/C(=O)N1CC[C@H](n2nnc3c(O[C@@H](C)[C@@H]4CCCN4C)nc4c(F)c(-c5ccc(F)cc5)c(C)cc4c32)C[C@H]1CC#N
≤ 50 nM: all assays above
